Marks after values point to notes of the source that are not given here.
Assays:
thrombus = test: In vivo thrombolytic activity, thrombus on steel helix in extracorporeal circulation; conditions: male Wistar rats; injected; dose differs per compound (3.1-8.2 mg/kg; UK 20000 IU); blood circulated 90 min; n = 10; NS control 12.31 ± 2.57
Description: Male Wistar rats weighing 200–300 g (purchased from Animal Center of Peking University) were anesthetized with pentobarbital sodium (80.0 mg/kg, ip). The right carotid artery and left vein jugular of the animals were separated. To the glass tube filled with artery blood (1.0 ml) from the right carotid artery of the animal a stainless steel filament helix (15 circles; L, 15 mm; D, 1.0 mm) was put immediately. After 15 minutes the helix with thrombus was carefully taken out and weighted exactly, which was put into the middle polyethylene tube. The polyethylene tube was full with heparin sodium (50 IU/ml of NS) and one end was inserted into the left jugular vein. Heparin sodium was injected via the other end of the polyethylene tube as the anticoagulant, following which the tested pseudopeptide was injected. The blood was circulated through the polyethylene tube for 90 min, after which the helix was taken out and weighted accurately.

fibrin plate = test: In vitro fibrinolytic lysis on fibrin plate (fibrinogen-agarose); assay type: biochemical, rabbit; conditions: dosage per well differs per compound (0.8-2.2 μg; UK 5 IU); n = 6; NS control 21.01 ± 9.26
Description: The plates were prepared by mixing equal volumes of 0.3% rabbit fibrinogen and 0.95% agarose solutions, both dissolved in 50 mM of barbital buffer (pH 7.8, contained 1.66 mM of CaCl2, 0.68 mM of MgCl2 and 93.96 mM of NaCl)^[6]. The fibrinogen-agarose mixture was coagulated with […] thrombin (100 IU: ml) in the plastic dishes (its diameter is 90 mm and the depth of the fibrin plate is 1 mm). After 30 min at 4° C. an adequate number of wells, 5 mm in diameter, were perforated. To determine fibrinolytic activity […] aliquots of the tested pseudopeptides were added to each well, the plate was incubated, and areas of lysis were quantified as described for the regular fibrin plates.

[1] = system: rabbit euglobulin fraction; test: In vitro euglobulin clot lysis time (ECLT); assay type: biochemical; conditions: dosage differs per compound (1.3-6.7 μg; UK 5 IU); 96 well microtiter plate; n = 6; NS control 200.01 ± 15.26
Description: The rabbit euglobulin fraction was prepared according to the literature^[6]. Plasma diluted […] in distilled water was precipitated at pH 5.7 with acetic acid (0.25%). After 30 min at 4° C. the suspension was centrifuged at 2000 g for 15 min and the precipitate was resuspended to the initial plasma volume with 50 mM barbital buffer (pH 7.8, contained 1.66 mM of CaCl2, 0.68 mM of MgCl2 and 93.96 mM of NaCl). Euglobulin clot lysis time (ECLT) of the tested pseudopeptide was measured using a 96 well microtiter plate^[7] and the data are listed in Table 2.

Row | Substance | The reduction of thrombolytic mass, x ± SD (thrombus) | Effect of the pseudopeptides on fibrin plate, areas of lysis, x ± SD (fibrin plate) | Euglobulin clot lysis time, x ± SD [1]
1 | H-Ala-Arg-Pro-OH [compound 9] | 13.81 ± 2.50 mg | 23.16 ± 9.05 mm^2 | 203.81 ± 29.50 min
2 | H-Arg-Arg-Pro-Ala-Lys-OH (H-RRPAK-OH) [compound 6] | 13.31 ± 2.75 mg | 33.77 ± 10.05 mm^2 | 213.31 ± 27.75 min
3 | H-Arg-Pro-Ala-Lys-OH (H-RPAK-OH) [compound 7] | 18.22 ± 2.40^a mg | 125.33 ± 10.10^a mm^2 | 85.22 ± 20.40^a,b min
4 | H-Asn-Arg-Pro-Ala-Lys-OH (H-NRPAK-OH) [compound 5] | 12.88 ± 2.66 mg | 22.66 ± 9.46 mm^2 | 212.88 ± 29.66 min
5 | H-Gln-Arg-Pro-Ala-Lys-OH (H-QRPAK-OH) [compound 4] | 21.28 ± 3.46^1)2) mg | 136.28 ± 10.62^a mm^2 | 86.28 ± 20.46^a,b min
6 | H-Gly-Arg-Pro-Ala-Lys-OH (H-GRPAK-OH) [compound 2] | 25.90 ± 2.05^1) mg | 125.90 ± 11.15^a mm^2 | 89.90 ± 20.05^a,b min
7 | H-Lys-Arg-Pro-Ala-Lys-OH (H-KRPAK-OH) [compound 3] | 21.28 ± 3.46^1)2) mg | 38.99 ± 9.06 mm^2 | 221.28 ± 23.46 min
8 | H-Pro-Ala-Lys-OH [compound 8] | 23.68 ± 2.34^a mg | 138.06 ± 9.39^a mm^2 | 80.68 ± 20.34^a,b min
